# Reference: patent US20200339604A1, “PYRAZOLOPYRIMIDINE COMPOUNDS AS JAK INHIBITORS” (Genentech, Inc., priority 2018, published 2020)
# Like-named read-outs stand apart in the source and are kept apart here.
# Legend:
# [1] = molecular target: T1, isolated recombinant JAK1 kinase domain (Homo sapiens, UniProt P23458); test: JAK enzyme assay, JAK1 kinase domain (Caliper LabChip); assay type: biochemical; conditions: 1.5 nM JAK1, ATP 25 μM, Morrison tight binding model
# T1 construct: isolated recombinant JAK1 and JAK2 kinase domain
# T1 sequence (P23458 875-1153 limits assumed): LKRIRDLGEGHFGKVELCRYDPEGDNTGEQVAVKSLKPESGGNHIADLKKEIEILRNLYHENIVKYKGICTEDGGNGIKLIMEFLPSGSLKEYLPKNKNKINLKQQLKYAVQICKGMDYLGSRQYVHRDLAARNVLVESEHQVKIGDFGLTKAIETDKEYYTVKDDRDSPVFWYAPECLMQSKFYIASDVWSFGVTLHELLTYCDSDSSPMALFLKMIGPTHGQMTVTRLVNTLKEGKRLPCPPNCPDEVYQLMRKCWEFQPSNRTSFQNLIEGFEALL
# Procedure: (§1) JAK Enzyme Assays were Carried Out as Follows:
# (§2) The activity of the isolated recombinant JAK1 and JAK2 kinase domain was measured by monitoring phosphorylation of a peptide derived from JAK3 ([…] fluorescently labeled on the N-terminus with 5-carboxyfluorescein) using the Caliper LabChip® technology (Caliper Life Sciences, Hopkinton, Mass.). To determine inhibition constants (K), compounds were diluted serially in DMSO and added to 50 μL kinase reactions containing purified enzyme (1.5 nM JAK1, or 0.2 nM JAK2), 100 mM HEPES buffer (pH 7.2), 0.015% Brij-35, 1.5 μM peptide substrate, ATP (25 μM), 10 mM MgCl2, 4 mM DTT at a final DMSO concentration of 2%.
# (§3) Reactions were incubated at 22° C. in 384-well polypropylene microtiter plates for 30 minutes and then stopped by addition of 25 µL of an EDTA containing solution (100 mM HEPES buffer (pH 7.2), 0.015% Brij-35, 150 mM EDTA), resulting in a final EDTA concentration of 50 mM. After termination of the kinase reaction, the proportion of phosphorylated product was determined as a fraction of total peptide substrate using the Caliper LabChip® 3000 according to the manufacturer's specifications. K values were then determined using the Morrison tight binding model (Morrison, J. F., Biochim. Biophys. Acta. 185:269-296 (1969); William, J. W. and Morrison, J. F., Meth. Enzymol., 63:437-467 (1979)) modified for ATP-competitive inhibition [Ki=Ki, app/(1+[ATP]/Km,app)].
# [2] = test system: JAK1-dependent STAT6 phosphorylation downstream of IL-13 stimulation, BEAS-2B human bronchial epithelial cells; test: JAK1 pathway assay in cell lines: IL-13 stimulated STAT6 phosphorylation in BEAS-2B cells (MSD); assay type: cell-based; conditions: IL-13 stimulation 15 min at EC90, read-out: IL-13 p-STAT6 BEAS-2B IC50
# Procedure: JAK1 Pathway Assay in Cell Lines was Carried Out as Follows:
# Inhibitor potency (EC50) was determined in cell-based assays designed to measure JAK1 dependent STAT phosphorylation. As noted above, inhibition of IL-4, IL-13, and IL-9 signaling by blocking the Jak/Stat signaling pathway can alleviate asthmatic symptoms in pre-clinical lung inflammation models (Mathew et al., 2001, J Exp Med 193(9): 1087-1096; Kudlacz et. al., 2008, Eur J. Pharmacol 582(1-3): 154-161).
# In one assay approach, TF-1 human erythroleukemia cells obtained from the American Type Culture Collection (ATCC; Manassas, Va.) were used to measure JAK1-dependent STAT6 phosphorylation downstream of IL-13 stimulation. Prior to use in the assays, TF-1 cells were starved of GM-CSF overnight in OptiMEM medium (Life Technologies, Grand Island, N.Y.) supplemented with 0.5% charcoal/dextran stripped fetal bovine serum (FBS), 0.1 mM non-essential amino acids (NEAA), and 1 mM sodium pyruvate. The assays were run in 384-well plates in serum-free OptiMEM medium using 300,000 cells per well. In a second assay approach, BEAS-2B human bronchial epithelial cells obtained from ATCC were plated at 100,000 cells per well of a 96-well plate one day prior to the experiment. The BEAS-2B assay was run in complete growth medium (bronchial epithelial basal medium plus bulletkit; Lonza; Basel, Switzerland).
# Test compounds were serially diluted 1:2 in DMSO and then diluted 1:50 in medium just before use. Diluted compounds were added to the cells, for a final DMSO concentration of […], and incubated for 30 m (for the TF-1 assay) or […] (for the BEAS-2B assay) at 37° C. Then, cells were stimulated with human recombinant cytokine at their respective EC90 concentrations, as previously determined for each individual lot. Cells were stimulated with IL-13 (R&D Systems, Minneapolis, Minn.) for 15 min at 37° C. The TF-1 cell reactions were stopped by the direct addition of 10× lysis buffer (Cell Signaling Technologies, Danvers, Mass.), whereas the BEAS-2B cell incubations were halted by the removal of medium and addition of 1× lysis buffer. The resultant samples were frozen in the plates at −80° C. Compound mediated inhibition of STAT6 phosphorylation was measured in the cell lysates using MesoScale Discovery (MSD) technology (Gaithersburg, Md.).
# [3] = molecular target: T2, isolated recombinant JAK2 kinase domain (Homo sapiens, UniProt O60674); test: JAK enzyme assay, JAK2 kinase domain (Caliper LabChip); assay type: biochemical; conditions: 0.2 nM JAK2, ATP 25 μM, Morrison tight binding model
# T2 construct: isolated recombinant JAK1 and JAK2 kinase domain
# T2 sequence (O60674 849-1124 limits assumed): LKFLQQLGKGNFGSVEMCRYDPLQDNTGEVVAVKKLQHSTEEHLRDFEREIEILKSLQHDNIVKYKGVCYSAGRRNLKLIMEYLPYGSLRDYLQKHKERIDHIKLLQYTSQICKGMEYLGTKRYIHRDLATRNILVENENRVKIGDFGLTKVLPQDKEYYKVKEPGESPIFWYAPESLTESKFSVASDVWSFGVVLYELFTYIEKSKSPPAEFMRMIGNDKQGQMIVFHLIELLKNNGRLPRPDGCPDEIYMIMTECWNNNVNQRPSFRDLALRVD
# Procedure: as §1, §2, §3
Ki [1],Ki [3],Compound,"IC50 ([2]; Homo sapiens, BEAS-2B, […])",IC50 [2]
1100 pM,620 pM,"CS(=O)(=O)c1ccc(OC(F)F)c(-c2nn(C3CCOC3=O)cc2NC(=O)c2cnn3cccnc23)c1 (single isomer, unassigned) [Example 40, N-[3-[2-(difluoromethoxy)-5-methylsulfonyl-phenyl]-1-(2-oxotetrahydrofuran-3-yl)pyrazol-4-yl]pyrazolo[1,5-a]pyrimidine-3-carboxamide]",120000 pM,–
650 pM,400 pM,"O=C(Nc1cn(C2CCOC2=O)nc1-c1cc(OC(F)F)ccc1OC(F)F)c1cnn2cccnc12 (single isomer, unassigned) [Example 36, N-[3-[2,5-bis(difluoromethoxy)phenyl]-1-(2-oxotetrahydrofuran-3-yl)pyrazol-4-yl]pyrazolo[1,5-a]pyrimidine-3-carboxamide]",18000 pM,–
1400 pM,140 pM,Cn1[nH]cc(-n2cc(NC(=O)c3cnn4cccnc34)c(-c3cc(Cl)ccc3OC(F)F)n2)c1=O [Example 26],280000 pM,–
600 pM,420 pM,"O=C(Nc1cn(C2CCOC2=O)nc1-c1cc2c(cc1OC(F)F)NCCO2)c1cnn2cccnc12 (single isomer, unassigned) [Example 38, N-[3-[6-(difluoromethoxy)-3,4-dihydro-2H-1,4-benzoxazin-7-yl]-1-(2-oxotetrahydrofuran-3-yl)pyrazol-4-yl]pyrazolo[1,5-a]pyrimidine-3-carboxamide]",–,–
700 pM,400 pM,"O=C(Nc1cn(C2CCOC2=O)nc1-c1cc(SC(F)F)ccc1OC(F)F)c1cnn2cccnc12 (single isomer, unassigned) [Example 31, N-[3-[2-(difluoromethoxy)-5-(difluoromethyl-sulfanyl)phenyl]-1-(2-oxotetrahydrofuran-3-yl)pyrazol-4-yl]pyrazolo[1,5-a]pyrimidine-3-carboxamide]",–,16000 pM
3900 pM,980 pM,"O=C(Nc1cn(C2CCN(C3COC3)C2=O)nc1-c1cc(Cl)ccc1OC(F)F)c1cnn2cccnc12 (single isomer, unassigned) [Example 24, N-[3-[5-chloro-2-(difluoromethoxy)phenyl]-1-[1-(oxetan-3-yl)-2-oxo-pyrrolidin-3-yl]pyrazol-4-yl]pyrazolo[1,5-a]pyrimidine-3-carboxamide]",–,57000 pM
92 pM,56 pM,"O=C(Nc1cn(C2CCOC2=O)nc1-c1cc2c(cc1OC(F)F)NCCS2)c1cnn2cccnc12 (single isomer, unassigned) [Example 34, N-[3-[6-(difluoromethoxy)-3,4-dihydro-2H-1,4-benzothiazin-7-yl]-1-(2-oxotetrahydrofuran-3-yl)pyrazol-4-yl]pyrazolo[1,5-a]pyrimidine-3-carboxamide]",–,–
170 pM,95 pM,"O=C(Nc1cn(C2CCOC2=O)nc1-c1cc2c(cc1OC(F)F)NCCS2)c1cnn2cccnc12 (single isomer, unassigned) [Example 33, N-[3-[6-(difluoromethoxy)-3,4-dihydro-2H-1,4-benzothiazin-7-yl]-1-(2-oxotetrahydrofuran-3-yl)pyrazol-4-yl]pyrazolo[1,5-a]pyrimidine-3-carboxamide]",–,–
320 pM,290 pM,"O=C(Nc1cn(C2CCOC2=O)nc1-c1cc2c(cc1OC(F)F)NCCO2)c1cnn2cccnc12 (single isomer, unassigned) [Example 39, N-[3-[6-(difluoromethoxy)-3,4-dihydro-2H-1,4-benzoxazin-7-yl]-1-(2-oxotetrahydrofuran-3-yl)pyrazol-4-yl]pyrazolo[1,5-a]pyrimidine-3-carboxamide; formic acid]",–,–

# The remaining lines, values behind:
Compound,Ki [1],Ki [3],"IC50 ([2]; Homo sapiens, BEAS-2B, […])",IC50 [2]
"CN1CCC(n2cc(NC(=O)c3cnn4cccnc34)c(-c3cc4c(cc3OC(F)F)NCCS4)n2)C1=O (single isomer, unassigned) [Example 13, N-[3-[6-(difluoromethoxy)-3,4-dihydro-2H-1,4-benzothiazin-7-yl]-1-(1-methyl-2-oxo-pyrrolidin-3-yl)pyrazol-4-yl]pyrazolo[1,5-a]pyrimidine-3-carboxamide]",880 pM,430 pM,–,290000 pM
"CN1CCCC(n2cc(NC(=O)c3cnn4cccnc34)c(-c3cc(Cl)ccc3OC(F)F)n2)C1=O (single isomer, unassigned) [Example 20, N-[3-[5-chloro-2-(difluoromethoxy)phenyl]-1-(1-methyl-2-oxo-3-piperidyl)pyrazol-4-yl]pyrazolo[1,5-a]pyrimidine-3-carboxamide]",480 pM,1500 pM,–,24000 pM
"O=C(Nc1cn(C2CCN(C3COC3)C2=O)nc1-c1cc(Cl)ccc1OC(F)F)c1cnn2cccnc12 (single isomer, unassigned) [Example 23, N-[3-[5-chloro-2-(difluoromethoxy)phenyl]-1-[1-(oxetan-3-yl)-2-oxo-pyrrolidin-3-yl]pyrazol-4-yl]pyrazolo[1,5-a]pyrimidine-3-carboxamide]",510 pM,540 pM,–,23000 pM
"CN1CCC(n2cc(NC(=O)c3cnn4cccnc34)c(-c3cc(OC(F)F)ccc3OC(F)F)n2)C1=O (single isomer, unassigned) [Example 8, N-[3-[2,5-bis(difluoromethoxy)phenyl]-1-(1-methyl-2-oxo-pyrrolidin-3-yl)pyrazol-4-yl]pyrazolo[1,5-a]pyrimidine-3-carboxamide]",300 pM,840 pM,–,20000 pM
"CN1CCC(n2cc(NC(=O)c3cnn4cccnc34)c(-c3cc4c(cc3OC(F)F)NCCO4)n2)C1=O (single isomer, unassigned) [Example 11, N-[3-[6-(difluoromethoxy)-3,4-dihydro-2H-1,4-benzoxazin-7-yl]-1-(1-methyl-2-oxo-pyrrolidin-3-yl)pyrazol-4-yl]pyrazolo[1,5-a]pyrimidine-3-carboxamide]",1200 pM,500 pM,–,230000 pM
"CN1CCN(C(=O)CN2CCC(n3cc(NC(=O)c4cnn5cccnc45)c(-c4cc(Cl)ccc4OC(F)F)n3)C2=O)CC1 (single isomer, unassigned) [Example 16, N-[3-[5-chloro-2-(difluoromethoxy)phenyl]-1-[1-[2-(4-methylpiperazin-1-yl)-2-oxo-ethyl]-2-oxo-pyrrolidin-3-yl]pyrazol-4-yl]pyrazolo[1,5-a]pyrimidine-3-carboxamide]",2800 pM,680 pM,200000 pM,–
"O=C(Nc1cn(C2CCN(CCN3CCOCC3)C2=O)nc1-c1cc(Cl)ccc1OC(F)F)c1cnn2cccnc12 (single isomer, unassigned) [Example 15, N-[3-[5-chloro-2-(difluoromethoxy)phenyl]-1-[1-(2-morpholinoethyl)-2-oxo-pyrrolidin-3-yl]pyrazol-4-yl]pyrazolo[1,5-a]pyrimidine-3-carboxamide]",4400 pM,1000 pM,–,–
"CN1CCC(n2cc(NC(=O)c3cnn4cccnc34)c(-c3cc4c(cc3OC(F)F)NCCS4)n2)C1=O (single isomer, unassigned) [Example 12]",150 pM,110 pM,–,–
